{"source": "patent US20210171604A1", "about": "“PEPTIDES FOR THE TREATMENT OF TYPE 2 DIABETES” (YISSUM RESEARCH DEVELOPMENT COMPANY OF THE HEBREW …, priority 2017, published 2021)", "key": {"[1]": {"system": "male C57BL mice", "test": "Inhibition of starvation-induced insulin resistance (blood glucose after 8 h starvation)", "assay_type": "in vivo", "conditions": "for inhibition of insulin-resistance developed in the course of starvation: i.p. ~35 mg/kg, 8 h starvation, compared to vehicle; for % blood glucose decrease following 8 h starvation / Mean blood glucose after 8 h starvation (% of time 0): i.p. 1 mg/mouse (~35 mg/kg); for % blood glucose decrease following 8 h starvation: compared with time 0; for inhibition of starvation-induced insulin-resistance (words, FIG. 1): Example 5, 20 mg/kg i.p., relative change in blood glucose compared to time 0 (=100%); for Mean blood glucose after 8 h starvation (% of time 0): level after 8 h starvation compared to t0 (=100%), vehicle 90.3", "experimental": "Protocol: Blood glucose was measured in the morning (time 0). The mice were then injected intraperitoneally with a peptide (1 mg/mouse=˜35 mg/kg) or with a vehicle and placed in a cage with water but no food. After 8 hrs starvation, blood glucose was measured again and the mice were supplied with food. […]\nThe ability of the peptides ACD-403.3, ACD-047.7 and ACD-040.2 described in Example 1 above, to inhibit insulin-resistance induced by starvation was tested in mice (male C57BL mice ˜9-10 wks old).\nPeptides' solutions for injection were prepared as follows: 5 mg peptide were dissolved in 1 ml of a solution composed of 5% hydroxypropyl-beta-cyclodextrin (HPβCD)+2% Propylene glycol (PG)+2% Tween-80 in DDW (Wt/Vol). If needed, the solution was warmed up to 80° C. to facilitate peptide solubilization. 0.2 ml of this solution, or from a vehicle (no peptide), were injected i.p. into the mice.\nThe results, summarized in Table 4 below, are expressed as % change in blood glucose level after 8 h starvation, compared to t0 (=100%), as well as % decrease in blood glucose after 8 hrs starvation, compared with blood glucose at time 0. A higher decrease in glucose levels in the blood indicates better intake of glucose by cells, which reflects better inhibition of the starvation-induced insulin resistance. […]"}, "[2]": {"system": "obese diabetic mice (db/db)", "test": "Blood glucose response of obese diabetic (db/db) mice to peptide treatment", "assay_type": "in vivo", "conditions": "for Blood glucose: mean, n=3; for % change from time point (−4) in blood glucose: compared to first baseline (241 mg/dL)", "experimental": "ACD-004 was tested for its effect on hyperglycemia in obese diabetic mice (db/db).\nProtocol: Mice (n=3) were kept on normal, unlimited diet. Prior to peptide treatment, baseline measurements of blood glucose and body weight were taken every ˜3 weeks through a period of 2.5 months (see time points (−1)-(−4) in Table 3 below). Injections of the peptide (intraperitoneally, ˜35 mg/kg) started on time point 0 and continued on time points 1 and 2, twice a day. Blood glucose and body weight were measured at the indicated days.\nThe results, summarized in Table 3, are expressed as mean % change in blood glucose compared to the first baseline measurement (time point (−4)).\nMice (n=16) were kept on normal, unlimited diet. Injections of the peptide (i.p., 20 mg/kg, n=9) or vehicle (i.p., n=7) started at 3-4 m of age (time point ‘0’) and continued for 3 days, once a day. In a similar experiment the peptide […] were injected to mice with severe diabetes for 7 days."}, "[3]": {"conditions": "DMSO/Brij-97 vehicle, vehicle 14%"}, "[4]": {"conditions": "HPβCD/PG/Tween-80 vehicle, vehicle 9.7%"}}, "note": "Marks after values point to notes of the source that are not given here. [ ]: non-standard residue; d: D form. The star is where a group is joined. Stearoyl = CCCCCCCCCCCCCCCCCC(=O)*; Myristoyl = CCCCCCCCCCCCCC(=O)*; Nle = CCCC[C@H](N)C(=O)O; Nva = CCC[C@H](N)C(=O)O", "data": [{"substance": "Myr-G-F-T-K-G-Q-V-T-NH2 (Myristoyl-GFTKGQVT-NH2; SMILES CCCCCCCCCCCCCC(=O)NCC(=O)N[C@@H](Cc1ccccc1)C(=O)N[C@H](C(=O)N[C@@H](CCCCN)C(=O)NCC(=O)N[C@@H](CCC(N)=O)C(=O)N[C@H](C(=O)N[C@H](C(N)=O)[C@@H](C)O)C(C)C)[C@@H](C)O) [ACD-005, myristoylated, amidated peptide derived from h-HIF1α]", "values": [{"measurement": "inhibition of insulin-resistance developed in the course of starvation", "setting": "[1]; Example 2", "result": "effectively inhibited insulin-resistance"}, {"measurement": "% blood glucose decrease following 8 h starvation", "setting": "[1]; [3]", "result": 49, "unit": "%"}]}, {"substance": "Myr-G-R-N-F-Q-K-G-Q-V-T-R-NH2 (Myristoyl-GRNFQKGQVTR-NH2; SMILES CCCCCCCCCCCCCC(=O)NCC(=O)N[C@@H](CCCNC(=N)N)C(=O)N[C@@H](CC(N)=O)C(=O)N[C@@H](Cc1ccccc1)C(=O)N[C@@H](CCC(N)=O)C(=O)N[C@@H](CCCCN)C(=O)NCC(=O)N[C@@H](CCC(N)=O)C(=O)N[C@H](C(=O)N[C@H](C(=O)N[C@@H](CCCNC(=N)N)C(N)=O)[C@@H](C)O)C(C)C) [ACD-004, myristoylated, C-terminally amidated peptide derived from h-HO-1]", "values": [{"measurement": "inhibition of insulin-resistance developed in the course of starvation", "setting": "[1]; Example 2", "result": "effectively inhibited insulin-resistance"}, {"measurement": "% blood glucose decrease following 8 h starvation", "setting": "[1]; [3]", "result": 47, "unit": "%"}, {"measurement": "Blood glucose", "setting": "[2]; ACD-004 i.p. ~35 mg/kg twice a day at time points 0-2, time point 3, age 18.3 wks", "result": 105, "unit": "mg/dL"}, {"measurement": "Blood glucose", "setting": "[2]; ACD-004 i.p. ~35 mg/kg twice a day from time point 0, time point 1, age 17.9 wks", "result": 177, "unit": "mg/dL"}, {"measurement": "Blood glucose", "setting": "[2]; ACD-004 i.p. ~35 mg/kg twice a day from time point 0, time point 2, age 18.1 wks", "result": 139, "unit": "mg/dL"}, {"measurement": "effect on blood glucose levels in diabetic mice", "setting": "[2]; Example 3, i.p. ~35 mg/kg twice a day", "result": "effectively reduced blood glucose levels"}, {"measurement": "% change from time point (−4) in blood glucose", "setting": "[2]; time point 1", "result": "−27", "unit": "%"}, {"measurement": "% change from time point (−4) in blood glucose", "setting": "[2]; time point 2", "result": "−42", "unit": "%"}, {"measurement": "% change from time point (−4) in blood glucose", "setting": "[2]; time point 3", "result": "−56", "unit": "%"}]}, {"substance": "Myr-G-R-N-I-Q-K-G-Q-V-T-R-NH2 (Myristoyl-GRNIQKGQVTR-NH2; SMILES CCCCCCCCCCCCCC(=O)NCC(=O)N[C@@H](CCCNC(=N)N)C(=O)N[C@@H](CC(N)=O)C(=O)N[C@H](C(=O)N[C@@H](CCC(N)=O)C(=O)N[C@@H](CCCCN)C(=O)NCC(=O)N[C@@H](CCC(N)=O)C(=O)N[C@H](C(=O)N[C@H](C(=O)N[C@@H](CCCNC(=N)N)C(N)=O)[C@@H](C)O)C(C)C)[C@@H](C)CC) [ACD-047.8]", "values": [{"measurement": "inhibition of starvation-induced insulin-resistance (words, FIG. 1)", "setting": "[1]", "result": "inactive"}]}, {"substance": "Myr-G-R-N-L-Q-K-G-Q-V-T-R-NH2 (Myristoyl-GRNLQKGQVTR-NH2; SMILES CCCCCCCCCCCCCC(=O)NCC(=O)N[C@@H](CCCNC(=N)N)C(=O)N[C@@H](CC(N)=O)C(=O)N[C@@H](CC(C)C)C(=O)N[C@@H](CCC(N)=O)C(=O)N[C@@H](CCCCN)C(=O)NCC(=O)N[C@@H](CCC(N)=O)C(=O)N[C@H](C(=O)N[C@H](C(=O)N[C@@H](CCCNC(=N)N)C(N)=O)[C@@H](C)O)C(C)C) [ACD-047.7, myristoylated, amidated peptide derived from h-HO-1]", "values": [{"measurement": "inhibition of insulin-resistance developed in the course of starvation", "setting": "[1]; Example 4", "result": "effectively inhibited insulin-resistance"}, {"measurement": "inhibition of starvation-induced insulin-resistance (words, FIG. 1)", "setting": "[1]", "result": "inhibited significantly"}, {"measurement": "% blood glucose decrease following 8 h starvation", "setting": "[1]; [4]", "result": 39.2, "unit": "%"}, {"measurement": "Mean blood glucose after 8 h starvation (% of time 0)", "setting": "[1]; HPβCD/PG/Tween-80 vehicle", "result": "60.8** %"}]}, {"substance": "Myr-G-R-N-Nle-Q-K-G-Q-V-T-R-NH2 (Myristoyl-GRN[Nle]QKGQVTR-NH2; SMILES CCCCCCCCCCCCCC(=O)NCC(=O)N[C@@H](CCCNC(=N)N)C(=O)N[C@@H](CC(N)=O)C(=O)N[C@@H](CCCC)C(=O)N[C@@H](CCC(N)=O)C(=O)N[C@@H](CCCCN)C(=O)NCC(=O)N[C@@H](CCC(N)=O)C(=O)N[C@H](C(=O)N[C@H](C(=O)N[C@@H](CCCNC(=N)N)C(N)=O)[C@@H](C)O)C(C)C) [ACD-047.9]", "values": [{"measurement": "inhibition of starvation-induced insulin-resistance (words, FIG. 1)", "setting": "[1]", "result": "inactive"}]}, {"substance": "Myr-G-R-N-NorVal-Q-K-G-Q-V-T-R-NH2 (Myristoyl-GRN[Nva]QKGQVTR-NH2; SMILES CCCCCCCCCCCCCC(=O)NCC(=O)N[C@@H](CCCNC(=N)N)C(=O)N[C@@H](CC(N)=O)C(=O)N[C@@H](CCC)C(=O)N[C@@H](CCC(N)=O)C(=O)N[C@@H](CCCCN)C(=O)NCC(=O)N[C@@H](CCC(N)=O)C(=O)N[C@H](C(=O)N[C@H](C(=O)N[C@@H](CCCNC(=N)N)C(N)=O)[C@@H](C)O)C(C)C) [ACD-040.2, myristoylated, amidated peptide derived from h-HO-1]", "values": [{"measurement": "inhibition of insulin-resistance developed in the course of starvation", "setting": "[1]; Example 4", "result": "effectively inhibited insulin-resistance"}, {"measurement": "% blood glucose decrease following 8 h starvation", "setting": "[1]; [4]", "result": 36.6, "unit": "%"}, {"measurement": "Mean blood glucose after 8 h starvation (% of time 0)", "setting": "[1]; HPβCD/PG/Tween-80 vehicle", "result": "63.4** %"}]}, {"substance": "Stear-G-R-N-F-Q-K-G-Q-V-T-R-NH2 (Stearoyl-GRNFQKGQVTR-NH2; SMILES CCCCCCCCCCCCCCCCCC(=O)NCC(=O)N[C@@H](CCCNC(=N)N)C(=O)N[C@@H](CC(N)=O)C(=O)N[C@@H](Cc1ccccc1)C(=O)N[C@@H](CCC(N)=O)C(=O)N[C@@H](CCCCN)C(=O)NCC(=O)N[C@@H](CCC(N)=O)C(=O)N[C@H](C(=O)N[C@H](C(=O)N[C@@H](CCCNC(=N)N)C(N)=O)[C@@H](C)O)C(C)C) [ACD-400.3, identical to ACD-004 except N-terminal acyl group is stearoyl instead of myristoyl]", "values": [{"measurement": "blood glucose following 7-day treatment (words, FIG. 3)", "setting": "[2]; (db/db) mice with severe diabetes, injected for 7 days, vs vehicle", "result": "outstanding decrease in blood glucose"}, {"measurement": "blood glucose following 3-day treatment (words, FIG. 2)", "setting": "[2]; i.p. 20 mg/kg once a day for 3 days, n=9 vs vehicle n=7", "result": "outstanding decrease in blood glucose"}]}, {"substance": "Stear-G-R-N-H-Q-K-G-Q-V-T-R-NH2 (Stearoyl-GRNHQKGQVTR-NH2; SMILES CCCCCCCCCCCCCCCCCC(=O)NCC(=O)N[C@@H](CCCNC(=N)N)C(=O)N[C@@H](CC(N)=O)C(=O)N[C@@H](Cc1c[nH]cn1)C(=O)N[C@@H](CCC(N)=O)C(=O)N[C@@H](CCCCN)C(=O)NCC(=O)N[C@@H](CCC(N)=O)C(=O)N[C@H](C(=O)N[C@H](C(=O)N[C@@H](CCCNC(=N)N)C(N)=O)[C@@H](C)O)C(C)C) [ACD-403.3, stearoylated, amidated peptide derived from h-HO-1]", "values": [{"measurement": "inhibition of insulin-resistance developed in the course of starvation", "setting": "[1]; Example 4", "result": "effectively inhibited insulin-resistance"}, {"measurement": "% blood glucose decrease following 8 h starvation", "setting": "[1]; [4]", "result": 36.7, "unit": "%"}, {"measurement": "Mean blood glucose after 8 h starvation (% of time 0)", "setting": "[1]; HPβCD/PG/Tween-80 vehicle", "result": "63.3** %"}]}]}
